Data from US12590121B2, “Peptide compound with repetitive sequences” (KING ABDULLAH UNIVERSITY OF SCIENCE AND TECHNOLOGY, priority 2020, dated 2026).
Non-standard residues stand in square brackets, D forms with d. Residues, ends and D or L forms follow the SMILES beside them. Cha = N[C@@H](CC1CCCCC1)C(=O)O

Columns and labels:
[1] = Viscoelastic characterization: mechanical stiffness of peptide hydrogels (rheometer); type: physicochemical
Protocol: The viscoelastic characteristics of peptide hydrogels, including the mechanical stiffness and viscosity, are analyzed using TA Ares-G2 Rheometer equipped with advanced Peltier system (APS). The mechanical stiffness of the peptide gels is measured using an 8 mm parallel plate with a gap of 1.8 mm, between the upper and lower plates, and at 22° C. The hydrogels are prepared, one day before the measurement, by mixing 135 μl of peptide solution, and 15 μl of 10×PBS inside a 9 mm internal diameter Sigmacote® coated glass casting ring. The rings are then kept inside Petri dishes at room temperature with water surrounding and tightly sealed to avoid dehydration. For each peptide, six replicates are prepared to control the accuracy of the measurements. The stiffness is analyzed through three successive tests, which are time-sweep, frequency-sweep, and amplitude-sweep. Time-sweep is first performed for 5 minutes with angular frequency and a strain of 1 rad/s and 0.1%, respectively. A frequency sweep is subsequently performed on the sample for a range of angular frequency of 0.1-100 rad/s with the same strain of 0.1%. The tests are completed with the amplitude sweep by applying a gradual increase of strain from 0.01% to 100% at 1 rad/s angular frequency.

[2] = system: human dermal fibroblasts (hDF); type: cell-based
Protocol: hDF is used in bioprinting experiments. Each cell type is cultured in its complete growth media, as described before, and cells at passages 4-8 are used in printing experiments. For bioprinting, hDF is mixed with PBS at a final concentration of 5×10^6 and 8×10^6 cells/ml, respectively, and loaded into the microfluidic tubing of the robotic arm bioprinter. In the printing process, the flow rates are 10 μl/min, 55 μl/min, and 8 μl/min for cells, peptide solution, and 5×PBS, respectively. Different cell-laden structures are printed including cuboids with 10 mm edges and 2.6 mm height, and cylinders with 10 mm diameter, and a height of 10 mm. After printing, the printed cell-laden constructs are placed in the CO2 incubator for 5 min before the addition of complete growth media. The printed cell-laden constructs are placed in standard conditions (37° C., 5% CO2, and 95% relative humidity), and the media are changed every three days.
LIVE/DEAD® Cell Viability/Cytotoxicity Kit (ThermoFisher®, USA) is used to assess the viability of cells within the 3D printed constructs. The same protocol, as described earlier, is followed except for increasing the incubation time to 1 hour. The viability of cells is assessed immediately after printing, within 1 hour, designated as day 0 and at days 3, 7, 17 and 24 post-printing. For each time point, two cell-laden constructs are analyzed, and images are taken from different areas of the construct, including the center, edges, top, and bottom. Stained printed cell-laden constructs are imaged using an inverted laser scanning confocal microscope (Zeiss™ LSM 880 Inverted Confocal Microscope, Germany). The number of live and dead cells are counted using imageJ software, and the percentage of cell viability is calculated as the average ratio of live to total cells.

[3] = Peptide gelation studies (vial inversion method); type: physicochemical; settings: for gelation time: 1×PBS buffer; for minimum gelation concentration: as used for 3D cell culture
Protocol: The peptide powder is dissolved in 0.90 mL of Milli-Q® water and vortexed until a clear and homogeneous solution is observed. Then 0.10 mL of 10×PBS buffer (w/o Ca^2+ and Mg^2+) is added to the peptide solution. The glass vial is kept undisturbed, and the hydrogel formation is observed using the vial inversion method. The time and minimum concentration at which each peptide has formed a hydrogel are noted.

[4] = Viscosity of peptide solution before and after gelation (rheometer, flow experiment); type: physicochemical
Protocol: The viscosity of the peptide solution before and after gelation is determined using the same rheometer, 25 mm parallel plate geometry, and a gap of 0.5 mm at 25° C. For the peptide solution, 250 μl of 13 mg/mL peptide solution is dropped on the Peltier plate and measured. For peptide gel samples, the peptide solution and 10×PBS buffer are mixed with the ratio of 1:10 on the Peltier plate and directly measured. The flow experiment is set up by starting the shear rate from 0.1 to 1500 s-1 for a 200-seconds duration. The value of the shear rate that we choose for our printing system is calculated using the equation below: 51
[formula] • γ: shear rate (s−1); Q: flow rate (95 μL/s); d: diameter of needle (0.514 mm).

[5] = gel, 13 mg/ml, shear rate 29.7 s^−1

Compound: CC[C@H](C)[C@H](NC(C)=O)C(=O)N[C@H](C(=O)N[C@@H](CC1CCCCC1)C(=O)N[C@@H](CCCCN)C(N)=O)[C@@H](C)CC [IIZK, Ac-Ile-Ile-Cha-Lys-NH2] (Ac-II[Cha]K-NH2)
- Loss Modulus (G′) ([1]; 1 mg/mL hydrogel): 0.88 ± 0.04 kPa
- Storage Modulus (G′) ([1]; 1 mg/mL hydrogel): 6.52 ± 0.18 kPa
- tan δ (G″/G′) ([1]; 1 mg/mL hydrogel): 0.13
- Loss Modulus (G′) ([1]; 2 mg/mL hydrogel): 2.02 ± 0.09 kPa
- Storage Modulus (G′) ([1]; 2 mg/mL hydrogel): 16.82 ± 0.72 kPa
- tan δ (G″/G′) ([1]; 2 mg/mL hydrogel): 0.12
- Loss Modulus (G′) ([1]; 5 mg/mL hydrogel): 7.08 ± 0.59 kPa
- Storage Modulus (G′) ([1]; 5 mg/mL hydrogel): 64.74 ± 4.89 kPa
- tan δ (G″/G′) ([1]; 5 mg/mL hydrogel): 0.11
- Loss Modulus (G′) ([1]; 8 mg/mL hydrogel): 10.91 ± 0.44 kPa
- Storage Modulus (G′) ([1]; 8 mg/mL hydrogel): 89.40 ± 1.86 kPa
- tan δ (G″/G′) ([1]; 8 mg/mL hydrogel): 0.12
- Loss Modulus (G′) ([1]; 10 mg/mL hydrogel): 15.54 ± 0.68 kPa
- Storage Modulus (G′) ([1]; 10 mg/mL hydrogel): 134.04 ± 5.99 kPa
- tan δ (G″/G′) ([1]; 10 mg/mL hydrogel): 0.12
- Loss Modulus (G′) ([1]; 13 mg/mL hydrogel): 37.76 ± 2.38 kPa
- Storage Modulus (G′) ([1]; 13 mg/mL hydrogel): 271.34 ± 35.09 kPa
- tan δ (G″/G′) ([1]; 13 mg/mL hydrogel): 0.14
- cell viability in the center versus the edge of the filled cube structure [2]: slightly lower
- gelation time ([3]; 1 mg/ml): less than 7 min
- minimum gelation concentration [3]: 1 mg/mL
- Viscosity [4, 5]: 0.47 Pa · s
- Viscosity ([4]; solution, 13 mg/mL): 0.03 Pa · s

Compound: FFFK: ultrashort amphiphilic peptide, one-letter amino acid sequence (Ac-FFFK-NH2)
- gelation time ([3]; 2 mg/ml): <15 min
- gelation time ([3]; 3 mg/ml): <10 min
- gelation time ([3]; 4 mg/ml): <5 min
- gelation time ([3]; 5 mg/ml): <5 min
- gelation time ([3]; 10 mg/ml): <2 min
- gelation time (in words) ([3]; 20 mg/ml): simultaneously

Compound: CC[C@H](C)[C@H](NC(C)=O)C(=O)N[C@@H](CC1CCCCC1)C(=O)N[C@@H](CC1CCCCC1)C(=O)N[C@@H](CCCCN)C(N)=O [IZZK, Ac-Ile-Cha-Cha-Lys-NH2] (Ac-I[Cha][Cha]K-NH2)
- Loss Modulus (G′) ([1]; 1 mg/mL hydrogel): 0.36 ± 0.08 kPa
- Storage Modulus (G′) ([1]; 1 mg/mL hydrogel): 3.71 ± 0.19 kPa
- tan δ (G″/G′) ([1]; 1 mg/mL hydrogel): 0.10
- Loss Modulus (G′) ([1]; 2 mg/mL hydrogel): 1.44 ± 0.07 kPa
- Storage Modulus (G′) ([1]; 2 mg/mL hydrogel): 15.53 ± 0.74 kPa
- tan δ (G″/G′) ([1]; 2 mg/mL hydrogel): 0.09
- Loss Modulus (G′) ([1]; 5 mg/mL hydrogel): 11.60 ± 0.51 kPa
- Storage Modulus (G′) ([1]; 5 mg/mL hydrogel): 85.87 ± 6.50 kPa
- tan δ (G″/G′) ([1]; 5 mg/mL hydrogel): 0.14
- Loss Modulus (G′) ([1]; 8 mg/mL hydrogel): 29.70 ± 1.54 kPa
- Storage Modulus (G′) ([1]; 8 mg/mL hydrogel): 193.09 ± 10.13 kPa
- tan δ (G″/G′) ([1]; 8 mg/mL hydrogel): 0.15
- Loss Modulus (G′) ([1]; 10 mg/mL hydrogel): 39.71 ± 1.50 kPa
- Storage Modulus (G′) ([1]; 10 mg/mL hydrogel): 222.13 ± 8.16 kPa
- tan δ (G″/G′) ([1]; 10 mg/mL hydrogel): 0.18
- Loss Modulus (G′) ([1]; 13 mg/mL hydrogel): 54.56 ± 1.46 kPa
- Storage Modulus (G′) ([1]; 13 mg/mL hydrogel): 314.91 ± 10.10 kPa
- tan δ (G″/G′) ([1]; 13 mg/mL hydrogel): 0.17
- cell viability in the center versus the edge of the filled cube structure [2]: slightly lower
- Viscosity [4, 5]: 0.48 Pa · s
- Viscosity ([4]; solution, 13 mg/mL): 0.06 Pa · s

Compound: IFFK: ultrashort amphiphilic peptide, one-letter amino acid sequence (Ac-IFFK-NH2)
- gel quality (in words) ([3]; 1 mg/ml): Slightly
- gelation time ([3]; 1 mg/ml): >60 min
- gelation time ([3]; 2 mg/ml): <10 min
- gelation time ([3]; 3 mg/ml): <5 min
- gelation time ([3]; 4 mg/ml): <5 min
- gelation time ([3]; 5 mg/ml): <5 min
- gelation time ([3]; 10 mg/ml): <5 min
- gelation time ([3]; 20 mg/ml): <5 min

Compound: FIIK: ultrashort amphiphilic peptide, one-letter amino acid sequence (Ac-FIIK-NH2)
- gel quality (in words) ([3]; 1 mg/ml): Soft gel
- gelation time ([3]; 1 mg/ml): <15 min
- gelation time ([3]; 2 mg/ml): <5 min
- gelation time ([3]; 3 mg/ml): <10 min
- gelation time ([3]; 5 mg/ml): <10 min
- gelation time ([3]; 10 mg/ml): <5 min
- gelation time ([3]; 20 mg/ml): <5 min

Compound: FFIK: ultrashort amphiphilic peptide, one-letter amino acid sequence (Ac-FFIK-NH2)
- gelation (in words) ([3]; 1 mg/ml, in 1 h): Does not gel
- gelation time ([3]; 2 mg/ml): <10 min
- gelation time ([3]; 3 mg/ml): <10 min
- gelation time ([3]; 5 mg/ml): <5 min
- gelation time ([3]; 10 mg/ml): <5 min
- gelation time ([3]; 20 mg/ml): <5 min

Compound: ZIIK: ultrashort amphiphilic peptide, one-letter sequence; Z is cyclohexylalanine (Ac-[Cha]IIK-NH2; SMILES CC[C@H](C)[C@H](NC(=O)[C@H](CC1CCCCC1)NC(C)=O)C(=O)N[C@H](C(=O)N[C@@H](CCCCN)C(N)=O)[C@@H](C)CC)
- gel quality (in words) ([3]; 1 mg/ml): Very soft gel
- gelation time ([3]; 1 mg/ml): <60 min
- gelation time ([3]; 2 mg/ml): <10 min
- gelation time ([3]; 5 mg/ml): <10 min
- gelation time ([3]; 10 mg/ml): <5 min
- gelation time ([3]; 20 mg/ml): <5 min

Compound: CC[C@H](C)[C@H](NC(C)=O)C(=O)N[C@H](C(=O)N[C@@H](Cc1ccccc1)C(=O)N[C@@H](CCCCN)C(N)=O)[C@@H](C)CC [IIFK, Ac-Ile-Ile-Phe-Lys-NH2] (Ac-IIFK-NH2)
- Loss Modulus (G′) ([1]; 1 mg/mL hydrogel): 0.13 ± 0.04 kPa
- Storage Modulus (G′) ([1]; 1 mg/mL hydrogel): 1.25 ± 0.86 kPa
- tan δ (G″/G′) ([1]; 1 mg/mL hydrogel): 0.10
- Loss Modulus (G′) ([1]; 2 mg/mL hydrogel): 1.31 ± 0.12 kPa
- Storage Modulus (G′) ([1]; 2 mg/mL hydrogel): 14.45 ± 1.37 kPa
- tan δ (G″/G′) ([1]; 2 mg/mL hydrogel): 0.09
- Loss Modulus (G′) ([1]; 5 mg/mL hydrogel): 2.39 ± 0.11 kPa
- Storage Modulus (G′) ([1]; 5 mg/mL hydrogel): 27.26 ± 1.30 kPa
- tan δ (G″/G′) ([1]; 5 mg/mL hydrogel): 0.09
- Loss Modulus (G′) ([1]; 8 mg/mL hydrogel): 5.00 ± 0.31 kPa
- Storage Modulus (G′) ([1]; 8 mg/mL hydrogel): 49.74 ± 5.02 kPa
- tan δ (G″/G′) ([1]; 8 mg/mL hydrogel): 0.10
- Loss Modulus (G′) ([1]; 10 mg/mL hydrogel): 9.04 ± 0.56 kPa
- Storage Modulus (G′) ([1]; 10 mg/mL hydrogel): 94.18 ± 7.12 kPa
- tan δ (G″/G′) ([1]; 10 mg/mL hydrogel): 0.10
- Loss Modulus (G′) ([1]; 13 mg/mL hydrogel): 8.90 ± 0.36 kPa
- Storage Modulus (G′) ([1]; 13 mg/mL hydrogel): 108.21 ± 5.02 kPa
- tan δ (G″/G′) ([1]; 13 mg/mL hydrogel): 0.08
- cell viability in the center versus the edge of the filled cube structure [2]: no difference
- gelation time ([3]; 1 mg/ml): less than 2.5 h
- gelation time ([3]; 10 mg/ml): less than 3 min
- minimum gelation concentration [3]: 2 mg/mL
- Viscosity [4, 5]: 0.56 Pa · s
- Viscosity ([4]; solution, 13 mg/mL): 0.09 Pa · s
